Source: PubChem BioAssay (NCI)
Where “and” joins values, the source holds several entries; their conditions need not be identical. Equal entries are not always repeated.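 Following 48 hours of exposure in 96-well plates, responses at five concentrations were used to interpolate endpoints linearly. The concentration for 50% growth inhibition is given as GI50. TGI marks complete inhibition of growth.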

Assays:
Test in all cases: NCI tumour cell line growth inhibition, 48 h
[1] = system: SF-295 CNS
[2] = system: NCI-H23 lung
[3] = system: SN12C renal
[4] = system: LOX IMVI melanoma
[5] = system: EKVX NSCLC
[6] = system: HT29 colon
[7] = system: NCI-H226 lung
[8] = system: HCT-15 colon
[9] = system: OVCAR-8 ovarian
[10] = system: NCI-H460 lung
[11] = system: HOP-62 NSCLC
[12] = system: XF 498 CNS
[13] = system: RXF 393 renal
[14] = system: A549 NSCLC
[15] = system: M19-MEL melanoma
[16] = system: CCRF-CEM leukemia
[17] = system: SW-620 colon
[18] = system: OVCAR-3 ovarian
[19] = system: COLO 205 colon
[20] = system: MALME-3M melanoma
[21] = system: HOP-18 NSCLC
[22] = system: UACC-257 melanoma
[23] = system: SK-OV-3 ovarian
[24] = system: HOP-92 NSCLC
[25] = system: SNB-78 CNS
[26] = system: HCT-116 colon
[27] = system: SK-MEL-28 melanoma
[28] = system: OVCAR-4 ovarian
[29] = system: SK-MEL-5 melanoma
[30] = system: KM20L2 colon
[31] = system: A498 renal
[32] = system: SNB-19 CNS
[33] = system: NCI/ADR-RES ovarian
[34] = system: IGROV1 ovarian
[35] = system: MCF7 breast
[36] = system: RPMI-8226 leukemia
[37] = system: SF-539 CNS
[38] = system: HL-60(TB) leukemia
[39] = system: UO-31 renal
[40] = system: P388/ADR leukemia
[41] = system: NCI-H522 lung
[42] = system: UACC-62 melanoma
[43] = system: K-562 leukemia
[44] = system: SNB-75 CNS
[45] = system: KM12 colon
[46] = system: SF-268 CNS
[47] = system: SN12K1 renal
[48] = system: DMS 273 small cell lung
[49] = system: SK-MEL-2 melanoma
[50] = system: MOLT-4 leukemia
[51] = system: U251 CNS
[52] = system: CAKI-1 renal
[53] = system: DLD-1 colon
[54] = system: HCC-2998 colon
[55] = system: OVCAR-5 ovarian
[56] = system: TK-10 renal
[57] = system: DMS 114 small cell lung
[58] = system: M14 melanoma
[59] = system: 786-0 renal
[60] = system: ACHN renal
[61] = system: LXFL 529 NSCLC
[62] = system: SR leukemia

C=C1C(=O)O[C@@H]2OC3(C)CCC4C(C)CCC1C42OO3 (stereo not given in full)
GI50 [1]: 11.7 µM
TGI [1]: 25.1 µM and 13.4 µM
GI50 [2]: 7.77 µM
TGI [2]: 22 µM and 17.5 µM
GI50 [3]: 4.96 µM
TGI [3]: 16.6 µM and 12.3 µM
GI50 [4]: 3.55 µM
TGI [4]: 12.9 µM and 8.11 µM
TGI [5]: 24.7 µM
GI50 [6]: 3.21 µM
TGI [6]: 11.2 µM and 6.73 µM
TGI [7]: 27.2 µM and 24.2 µM
GI50 [8]: 2.3 µM
TGI [8]: 9.95 µM and 4.02 µM
GI50 [9]: 3.47 µM
TGI [9]: 16.2 µM and 11.7 µM
TGI [10]: 8.04 µM and 5.58 µM
TGI [11]: 36.7 µM
GI50 [12]: 12 µM
TGI [12]: 24.3 µM and 3.88 µM
GI50 [13]: 3.31 µM
TGI [13]: 9.65 µM
GI50 [14]: 7.23 µM
TGI [14]: 23.1 µM and 18.7 µM
GI50 [15]: 2.44 µM
TGI [15]: 14.7 µM and 13.9 µM
TGI [16]: 2.35 µM and 5.26 µM
GI50 [17]: 3.44 µM
TGI [17]: 13.6 µM and 10.8 µM
GI50 [18]: 7.42 µM
TGI [18]: 19.6 µM and 10 µM
GI50 [19]: 3.99 µM
TGI [19]: 12.4 µM and 10.8 µM
GI50 [20]: 4.13 µM
GI50 [21]: 20.1 µM
TGI [21]: 34.5 µM and 30.2 µM
TGI [22]: 14.1 µM and 12 µM
TGI [23]: 34.7 µM
GI50 [24]: 2.54 µM
TGI [24]: 6.5 µM and 4.48 µM
GI50 [25]: 3.66 µM
TGI [25]: 19.8 µM
GI50 [26]: 2.47 µM
TGI [26]: 10.2 µM and 3.52 µM
TGI [27]: 25.1 µM and 23.9 µM
TGI [28]: 32.4 µM and 26 µM
TGI [29]: 17.2 µM
GI50 [30]: 11.1 µM
TGI [30]: 24.1 µM
GI50 [31]: 2.57 µM
TGI [31]: 6.56 µM and 10.6 µM
GI50 [32]: 12.6 µM
TGI [32]: 26.5 µM and 27.9 µM
GI50 [33]: 4.17 µM
TGI [33]: 18.6 µM and 6.51 µM
GI50 [34]: 4.71 µM
TGI [34]: 16.7 µM and 12.7 µM
GI50 [35]: 2.2 µM
TGI [35]: 11.5 µM and 15 µM
GI50 [36]: 0.573 µM
GI50 [37]: 3.07 µM
TGI [37]: 11.7 µM and 6.62 µM
GI50 [38]: 1.18 µM
TGI [38]: 3.55 µM and 2 µM
GI50 [39]: 4.57 µM
TGI [39]: 17.5 µM and 22.1 µM
TGI [40]: 1.2 µM
TGI [41]: 3.88 µM and 3.16 µM
TGI [42]: 6.86 µM and 5.17 µM
GI50 [43]: 2.32 µM
TGI [43]: 6.76 µM and 18.1 µM
GI50 [44]: 13.1 µM
TGI [44]: 25.9 µM and 7.74 µM
GI50 [45]: 2.66 µM
TGI [45]: 9.02 µM and 16.4 µM
GI50 [46]: 4.56 µM
TGI [46]: 18.1 µM and 11.6 µM
TGI [47]: 15.6 µM and 15.1 µM
TGI [48]: 14.2 µM and 13.2 µM
GI50 [49]: 3.79 µM
TGI [49]: 15.4 µM and 5.51 µM
GI50 [50]: 2.23 µM
TGI [50]: 5.96 µM and 5.53 µM
GI50 [51]: 8.18 µM
TGI [51]: 21.2 µM and 16.8 µM
TGI [52]: 5.95 µM
GI50 [53]: 1.02 µM
TGI [53]: 4.72 µM and 4.65 µM
TGI [54]: 25.9 µM
GI50 [55]: 24.5 µM
TGI [55]: 39.7 µM and 29.3 µM

O=C(O)C(C(=O)C(=O)C(C(=O)O)c1ccc(Cl)cc1)c1ccc(Cl)cc1 (stereo not given)
TGI [1]: 20.8 µM
TGI [2]: 5.6 µM
TGI [3]: 10.8 µM
TGI [4]: 8.79 µM
TGI [5]: 13.3 µM
TGI [6]: 11.1 µM
TGI [7]: 16.4 µM
TGI [9]: 6.23 µM
TGI [56]: 12.3 µM
TGI [57]: 5.64 µM
TGI [10]: 13.7 µM
TGI [11]: 16.9 µM
TGI [12]: 5.95 µM
TGI [13]: 8.37 µM
TGI [14]: 11.2 µM
TGI [15]: 12.5 µM
TGI [58]: 16.4 µM
TGI [16]: 10 µM
TGI [17]: 13.5 µM
TGI [59]: 15.7 µM
TGI [18]: 10.2 µM
TGI [60]: 12.8 µM
TGI [19]: 18.8 µM
TGI [20]: 10.4 µM
TGI [21]: 18.1 µM
TGI [22]: 11.4 µM
TGI [61]: 10.7 µM
TGI [23]: 18.2 µM
TGI [24]: 8.89 µM
TGI [25]: 13.9 µM
TGI [26]: 12.1 µM
TGI [27]: 15.7 µM
TGI [28]: 6.96 µM
TGI [30]: 11.3 µM
TGI [31]: 16.6 µM
TGI [32]: 14.3 µM
TGI [62]: 6 µM
TGI [34]: 9.03 µM
TGI [36]: 5.91 µM
TGI [37]: 4.6 µM
TGI [38]: 6.82 µM
TGI [39]: 15.4 µM
TGI [41]: 4.45 µM
TGI [42]: 3.91 µM
TGI [43]: 10.7 µM
TGI [44]: 8.89 µM
TGI [45]: 13.4 µM
TGI [46]: 11.9 µM
TGI [48]: 12.9 µM
TGI [50]: 5 µM
TGI [51]: 12 µM
TGI [52]: 13.6 µM
TGI [53]: 14.1 µM
TGI [54]: 14.1 µM
TGI [55]: 13.6 µM

COC(=O)[C@@]12OC[C@]34C([C@@H](O)C1O)[C@@]1(C)CC(=O)C(O)=C(C)C1C[C@H]3OC(=O)[C@H](OC(=O)/C=C(/c1ccccc1)C(F)(F)F)[C@H]42 (stereo not given in full)
TGI [1]: 12.7 µM
TGI [2]: 6.73 µM
TGI [3]: > 25 µM
TGI [5]: > 25 µM
TGI [6]: 15 µM
TGI [7]: 11.7 µM
TGI [8]: > 25 µM
TGI [9]: > 25 µM
TGI [56]: > 25 µM
TGI [57]: 17 µM
TGI [10]: 6.71 µM
TGI [11]: > 25 µM
TGI [12]: 10.6 µM
TGI [13]: 17.5 µM
TGI [14]: 20.2 µM
TGI [15]: 11 µM
TGI [58]: 8.48 µM
TGI [16]: > 25 µM
TGI [59]: > 25 µM
TGI [60]: 17.5 µM
TGI [19]: 21.1 µM
TGI [20]: 5.71 µM
TGI [21]: > 25 µM
TGI [22]: > 25 µM
TGI [61]: 15.3 µM
TGI [23]: > 25 µM
TGI [24]: 17.1 µM
TGI [25]: > 25 µM
TGI [26]: 12.3 µM
TGI [27]: 15.9 µM
TGI [28]: > 25 µM
TGI [29]: 13.4 µM
TGI [30]: 14 µM
TGI [31]: 8.45 µM
TGI [32]: 14.2 µM
TGI [62]: 2.28 µM
TGI [34]: 11.5 µM
TGI [37]: 3.75 µM
TGI [38]: 1.41 µM
TGI [39]: > 25 µM
TGI [41]: 13.7 µM
TGI [42]: 7.31 µM
TGI [43]: > 25 µM
TGI [44]: 18.6 µM
TGI [45]: > 25 µM
TGI [46]: > 25 µM
TGI [48]: 4.87 µM
TGI [49]: > 25 µM
TGI [50]: 13.8 µM
TGI [51]: > 25 µM
TGI [52]: > 25 µM
TGI [53]: > 25 µM
TGI [54]: 8.04 µM
TGI [55]: > 25 µM
